Patent publication US20240207267A1, “(R)-Glutarimide CRBN Ligands and Methods of Use” (BeiGene Switzerland GmbH, priority 2021, published 2024)
Like-named read-outs stand apart in the source and are kept apart here.

How the values were obtained:
[1] = biological target: EGFR L858R/T790M/C797S (BaF3-LTC cells) (Homo sapiens (Human), UniProt P00533, C797S/L858R/T790M); assay: EGFR degradation HTRF assay in BaF3-LTC cells; format: cell-based; details: 16 h treatment; for Dmax: maximum percentage of degradation
Sequence of EGFR L858R/T790M/C797S (BaF3-LTC cells) (P00533 25-1210 T790M/C797S/L858R): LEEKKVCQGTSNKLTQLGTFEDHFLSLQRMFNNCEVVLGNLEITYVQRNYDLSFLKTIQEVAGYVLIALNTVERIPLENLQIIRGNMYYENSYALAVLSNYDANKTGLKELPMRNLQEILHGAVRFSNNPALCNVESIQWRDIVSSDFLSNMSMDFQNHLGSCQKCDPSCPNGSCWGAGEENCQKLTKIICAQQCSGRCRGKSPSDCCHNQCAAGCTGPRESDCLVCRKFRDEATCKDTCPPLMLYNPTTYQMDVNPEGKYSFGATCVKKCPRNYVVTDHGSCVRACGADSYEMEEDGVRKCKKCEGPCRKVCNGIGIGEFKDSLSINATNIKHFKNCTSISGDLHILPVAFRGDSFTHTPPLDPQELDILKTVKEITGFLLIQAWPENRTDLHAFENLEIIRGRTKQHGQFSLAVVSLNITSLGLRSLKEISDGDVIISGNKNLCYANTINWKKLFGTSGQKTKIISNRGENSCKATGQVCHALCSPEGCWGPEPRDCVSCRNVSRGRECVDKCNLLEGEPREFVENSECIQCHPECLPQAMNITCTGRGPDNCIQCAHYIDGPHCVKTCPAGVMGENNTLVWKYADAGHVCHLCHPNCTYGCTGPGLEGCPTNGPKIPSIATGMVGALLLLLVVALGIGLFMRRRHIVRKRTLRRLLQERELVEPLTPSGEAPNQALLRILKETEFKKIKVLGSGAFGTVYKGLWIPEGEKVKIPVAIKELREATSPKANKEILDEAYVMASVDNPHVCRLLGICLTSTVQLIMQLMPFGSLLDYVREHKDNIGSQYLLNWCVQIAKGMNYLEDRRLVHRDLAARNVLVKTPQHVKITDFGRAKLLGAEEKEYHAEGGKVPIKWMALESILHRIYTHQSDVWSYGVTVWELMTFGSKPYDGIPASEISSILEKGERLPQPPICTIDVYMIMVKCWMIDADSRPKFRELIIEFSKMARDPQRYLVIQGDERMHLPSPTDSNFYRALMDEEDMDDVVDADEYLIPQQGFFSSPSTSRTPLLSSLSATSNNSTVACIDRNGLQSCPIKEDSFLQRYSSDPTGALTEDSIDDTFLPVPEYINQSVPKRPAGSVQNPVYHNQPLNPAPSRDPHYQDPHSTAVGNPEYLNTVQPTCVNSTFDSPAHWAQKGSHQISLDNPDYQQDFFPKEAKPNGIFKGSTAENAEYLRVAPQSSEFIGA
Description: (§1) BaF3-LTC(L858R/T790M/C797S) and BaF3-DTC(Del19/T790M/C797S) cells are treated with compounds diluted in 0.2% DMSO cell culture medium and incubate for 16 h, 37° C., 5% CO2, H1975- #28 cells are treated with compounds diluted in 0.2% DMSO cell culture medium on day 2, incubate for 16 h, 37° C., 5% CO2. the final concentration of compounds in all assay is start with 10 uM, 5-fold dilution, total 8 doses were included.
(§2) After 16 h treatment, add HTRF lysis buffer to each well; seal the plate and incubate 1 hour at room temperature on a plate shaker; Once the cells are lysed, 16 μL of cell lysate are transferred to a PE 384-well HTRF detection plate; 4 μL of pre-mixed HTRF antibodies are added to each well; Cover the plate with a plate sealer, spin 1000 rpm for 1 min, Incubate overnight at room temperature; Read on BMG PheraStar with HTRF protocol (337 nm-665 nm-620 nm).
(§3) The IC50 (DC50) value of a compound can be obtained by fitting the following equation
(§4) Y=Bottom+(TOP−Bottom)/(1+((IC50/X)^hillslope))
(§5) Wherein, X and Y are known values, and IC50, Hillslope, Top and Bottom are the parameters obtained by fitting with software. Y is the inhibition percentage (calculated from the equation), X is the concentration of the compound; IC50 is the concentration of the compound when the 50% inhibition is reached. The smaller the IC50 value is, the stronger the inhibitory ability of the compound is. Vice versa, the higher the IC50 value is, the weaker the ability the inhibitory ability of the compound is; Hillslope represents the slope of the fitted curve, generally around 1*; Bottom represents the minimum value of the curve obtained by data fitting, which is generally 0%±20%; Top represents the maximum value of the curve obtained by data fitting, which is generally 100%±20%. The experimental data were fitted by calculating and analyzing with Dotmatics data analysis software.

[2] = system: EGFR Del19/T790M/C797S (BaF3-DTC cells); assay: EGFR degradation HTRF assay in BaF3-DTC cells; format: cell-based; details: 16 h treatment, Table 1; for DTC Dmax: maximum percentage of degradation
Description: as §1, §2, §3, §4, §5

CRBN&DDB1 protein = CRBN&DDB1 protein (Homo sapiens (Human), UniProt Q96SW2); assay: CRBN&DDB1 HTRF (TR-FRET) assay, blocking binding of biotin labeled thalidomide; details: CRBN&DDB1 protein (His Tag), 30 nM biotin labeled thalidomide
Sequence of CRBN&DDB1 protein (Q96SW2 40-442): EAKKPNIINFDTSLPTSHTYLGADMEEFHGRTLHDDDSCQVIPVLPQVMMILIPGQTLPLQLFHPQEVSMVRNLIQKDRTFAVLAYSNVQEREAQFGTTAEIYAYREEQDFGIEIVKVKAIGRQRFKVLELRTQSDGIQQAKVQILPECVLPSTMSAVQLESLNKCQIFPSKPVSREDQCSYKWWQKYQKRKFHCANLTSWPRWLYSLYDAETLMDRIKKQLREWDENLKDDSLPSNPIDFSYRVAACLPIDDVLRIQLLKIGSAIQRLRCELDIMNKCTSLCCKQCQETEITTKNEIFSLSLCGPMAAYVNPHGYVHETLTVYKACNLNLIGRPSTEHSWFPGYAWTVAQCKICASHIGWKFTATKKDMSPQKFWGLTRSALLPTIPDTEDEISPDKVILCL
Sequence of CRBN&DDB1 protein (Q16531 whole entry partner, the tested form may be a part): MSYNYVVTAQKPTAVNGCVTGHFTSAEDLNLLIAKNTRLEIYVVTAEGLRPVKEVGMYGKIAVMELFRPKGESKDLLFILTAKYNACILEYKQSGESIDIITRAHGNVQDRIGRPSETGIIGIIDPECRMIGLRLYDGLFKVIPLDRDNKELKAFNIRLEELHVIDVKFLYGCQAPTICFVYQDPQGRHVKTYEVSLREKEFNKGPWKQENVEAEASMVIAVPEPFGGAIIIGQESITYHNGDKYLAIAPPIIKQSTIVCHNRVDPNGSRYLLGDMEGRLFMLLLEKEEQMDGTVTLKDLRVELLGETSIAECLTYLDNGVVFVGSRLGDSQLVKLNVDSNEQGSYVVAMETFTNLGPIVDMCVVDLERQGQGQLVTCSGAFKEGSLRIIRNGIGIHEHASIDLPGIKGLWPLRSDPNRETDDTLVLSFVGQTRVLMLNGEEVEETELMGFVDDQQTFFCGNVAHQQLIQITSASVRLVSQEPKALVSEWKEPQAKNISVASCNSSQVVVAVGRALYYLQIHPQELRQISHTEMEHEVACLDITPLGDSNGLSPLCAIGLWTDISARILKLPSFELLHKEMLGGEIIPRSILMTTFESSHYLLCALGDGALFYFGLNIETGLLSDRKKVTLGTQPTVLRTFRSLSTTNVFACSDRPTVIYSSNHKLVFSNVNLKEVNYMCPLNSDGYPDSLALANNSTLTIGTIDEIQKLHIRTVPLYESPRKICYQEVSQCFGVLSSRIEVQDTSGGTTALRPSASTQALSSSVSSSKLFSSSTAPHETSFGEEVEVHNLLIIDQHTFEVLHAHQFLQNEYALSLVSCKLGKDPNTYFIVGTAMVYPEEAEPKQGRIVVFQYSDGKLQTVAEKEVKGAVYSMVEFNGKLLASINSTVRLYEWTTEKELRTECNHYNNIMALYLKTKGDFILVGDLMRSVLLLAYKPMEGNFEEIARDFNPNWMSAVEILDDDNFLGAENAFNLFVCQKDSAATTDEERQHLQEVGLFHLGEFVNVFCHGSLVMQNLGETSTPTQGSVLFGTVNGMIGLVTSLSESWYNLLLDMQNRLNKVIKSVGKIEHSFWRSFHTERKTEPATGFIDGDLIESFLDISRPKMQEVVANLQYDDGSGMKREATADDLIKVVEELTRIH
Description: Biochemical potency of compound was determined by using CRBN& DDB1 protein (His Tag). Compounds were tested for blocking the binding of CRBN&DDB1 protein (CRBN, aa 40-442, DDB1, 1-1140, Viva Biotech) with biotin labeled thalidomide in an assay based on the time-resolved fluorescence-resonance energy transfer (TR-FRET) methodology. The assay was carried out in 384-well low volume black plates in a reaction mixture containing CRBN& DDB1 protein, 30 nM biotin labeled thalidomide and 0-10 μM compound in buffer containing 50 mM HEPES pH7.5, 50 mM NaCl, 0.01% BSA, 1 mM DTT and 0.015% Brij-35. The protein was preincubated with compound for 60 minutes at room temperature and biotin labeled thalidomide was added to plate. After further incubation at room temperature for 60 minutes detection reagents Mab Anti-6His Eu cryptate Gold (Cisbio, Cat #61HI2KLB) and Streptavidin-XL665 (Cisbio, Cat #610SAXLG) were added to plate. Plates were sealed and incubated at room temperature for 1 hour, and the TR-FRET signals (ex337 nm, em665 nm/620 nm) were recorded on a PHERAstar FSX plate reader (BMG Labtech). The inhibition percentage of CRBN& DDB1 protein interaction with biotin labeled thalidomide in presence of increasing concentrations of compounds was calculated based on the ratio of fluorescence at 665 nm to that at 620 nm. IC50 was derived from fitting the dose-response % inhibition data to the four-parameter logistic model by Dotmatics.
Four-parameter logistic equation: Y=Bottom+(Top−Bottom)/(1+10^((LogIC50−X) *HillSlope)). While X is Log of compound concentration. Y is % inhibition at X. Bottom is the bottom of the curve effect. Top is the top of the curve effect. HillSlope is the hill slope factor.

[3] = system: EGFR Del19/T790M/C797S (H1975-clone #28 cells); assay: EGFR degradation HTRF assay in H1975-clone #28 cells; format: cell-based; details: H1975-clone #28(Del19/T790M/C797S) cells, 16 h treatment, Table 2; for DC50: read-out: H1975 # 28 DTC DC50; for H1975 # 28 DTC Dmax: maximum percentage of degradation
Description: H1975-clone #28(Del19/T790M/C797S) was stably expressed in H1975 cell lines (from ATCC) by lentivirus-mediated over-expression. The EGFR over-expressed cells then underwent gene knockout, in which the EGFR targeting sgRNA was designed to only target the endogenous EGFR copies and preserve the exogenous EGFR copies. Followed by the gene knockout, the edited H1975 cells were seeded in 96 well plates at the concentration of […], cultured for about 2 weeks to allow single clones formation. The formed clones were screened by DNA sequencing and whole exon sequencing analysis for the desired edition. H1975-clone #28 was finally confirmed as homozygous Del19/T790M/C797S EGFR clone
as §1, §2, §3, §4, §5

[4] = Table 2, read-out: BaF3-LTC DC50

Which results are given for `CCc1cc(Nc2ncc(Br)c(Nc3ccc4nccnc4c3P(C)(C)=O)n2)c(OC)cc1N1CCC(N2CCN(CCc3ccc(C4CCC(=O)NC4=O)cc3)CC2)CC1` (stereo not drawn) [Example 19, 3-(4-(2-(4-(1-(4-((5-bromo-4-((5-(dimethylphosphoryl)quinoxalin-6-yl)amino)pyrimidin-2-yl)amino)-2-ethyl-5-methoxyphenyl)piperidin-4-yl)piperazin-1-yl)ethyl)phenyl)piperidine-2,6-dione]?
DC50 ([1]; Table 1, read-out: LTC DC50): 18.2 nM; DC50 [2]: 6.87 nM; DTC Dmax [2]: 92.16%

For `O=C1CCC(c2ccc(CCO)cc2)C(=O)N1` (stereo not drawn) [Example 15, 3-(4-(2-hydroxyethyl)phenyl)piperidine-2,6-dione], which IC50 (CRBN&DDB1 protein) is on record?
Its IC50 is 239 nM.

Which IC50 (CRBN&DDB1 protein) does the source give for `O=C1CC[C@H](c2c(F)cc(N3CC[C@@H](C(=O)O)C3)cc2F)C(=O)N1` [Example 5, (R)-1-(4-((R)-2,6-dioxopiperidin-3-yl)-3,5-difluorophenyl)pyrrolidine-3-carboxylic acid] here?
Its IC50 is 26 nM.

With `CC1(C)CN(c2cc(F)c([C@H]3CCC(=O)NC3=O)c(F)c2)C[C@H]1C(=O)O` [Example 14, (S)-1-(4-((R)-2,6-dioxopiperidin-3-yl)-3,5-difluorophenyl)-4,4-dimethylpyrrolidine-3-carboxylic acid] as the molecule, how does the IC50 (CRBN&DDB1 protein) read?
Its IC50 is 24 nM.

For `O=C1CCC(c2ccc(N3CC[C@@H](C(=O)O)C3)cc2)C(=O)N1` (stereo partly drawn) [Example 12, (3R)-1-(4-(2,6-dioxopiperidin-3-yl)phenyl)pyrrolidine-3-carboxylic acid], which IC50 (CRBN&DDB1 protein) is on record?
The IC50 was 178 nM.

Which DC50 ([1]; Table 1, read-out: LTC DC50) does the source give for `CCc1cc(Nc2ncc(Br)c(Nc3ccc4nccnc4c3P(C)(C)=O)n2)c(OC)cc1N1CCC(N2CCN(CCc3cc(F)c([C@@H]4CCC(=O)NC4=O)c(F)c3)CC2)CC1` [Example 17, (S)-3-(4-(2-(4-(1-(4-((5-bromo-4-((5-(dimethylphosphoryl)quinoxalin-6-yl)amino)pyrimidin-2-yl)amino)-2-ethyl-5-methoxyphenyl)piperidin-4-yl)piperazin-1-yl)ethyl)-2,6-difluorophenyl)piperidine-2,6-dione] here?
Its DC50 is 45.1 nM.

What about the Dmax ([1]; Table 1, read-out: LTC Dmax) of the same molecule?
Its Dmax is 84.6%.

And the DC50 [2]?
The DC50 was 6.75 nM.

What about the “DTC Dmax” value [2] of the same molecule?
Its value is 64.81%.

For `CCc1cc(Nc2ncc(Br)c(Nc3ccc4nccnc4c3P(C)(C)=O)n2)c(OC)cc1N1CCC(N2CCN(CCc3cc(F)c(C4CCC(=O)NC4=O)c(F)c3)CC2)CC1` (stereo not drawn) [Example 18, 3-(4-(2-(4-(1-(4-((5-bromo-4-((5-(dimethylphosphoryl)quinoxalin-6-yl)amino)pyrimidin-2-yl)amino)-2-ethyl-5-methoxyphenyl)piperidin-4-yl)piperazin-1-yl)ethyl)-2,6-difluorophenyl)piperidine-2,6-dione], which DC50 ([1]; Table 1, read-out: LTC DC50) is on record?
The DC50 was 8.82 nM.

And the DC50 [2]?
Its DC50 is 3.74 nM.

And the “DTC Dmax” value [2]?
Its value is 95.55%.

For `O=C1CCC(c2c(F)cc(N3CC(CO)C3)cc2F)C(=O)N1` (stereo not drawn) [Example 9, 3-(2,6-difluoro-4-(3-(hydroxymethyl)azetidin-1-yl)phenyl)piperidine-2,6-dione], which IC50 (CRBN&DDB1 protein) is on record?
Its IC50 is 64 nM.

With `O=C1CC[C@H](c2c(F)cc(N3CC[C@@H](CO)C3)cc2F)C(=O)N1` [Example 7, (R)-3-(2,6-difluoro-4-((R)-3-(hydroxymethyl)pyrrolidin-1-yl)phenyl)piperidine-2,6-dione] as the molecule, how does the IC50 (CRBN&DDB1 protein) read?
The IC50 was 22 nM.

For `O=C1CC[C@@H](c2c(F)cc(N3CC[C@@H](C(=O)O)C3)cc2F)C(=O)N1` [Example 6, (R)-1-(4-((S)-2,6-dioxopiperidin-3-yl)-3,5-difluorophenyl)pyrrolidine-3-carboxylic acid], which IC50 (CRBN&DDB1 protein) is on record?
Its IC50 is 1070 nM.

`CCc1cc(Nc2ncc(Br)c(Nc3ccc4nccnc4c3P(C)(C)=O)n2)c(OC)cc1N1CCC(N2CCN(CCc3cc(F)c([C@H]4CCC(=O)NC4=O)c(F)c3)CC2)CC1` [Example 16, (R)-3-(4-(2-(4-(1-(4-((5-bromo-4-((5-(dimethylphosphoryl)quinoxalin-6-yl)amino)pyrimidin-2-yl)amino)-2-ethyl-5-methoxyphenyl)piperidin-4-yl)piperazin-1-yl)ethyl)-2,6-difluorophenyl)piperidine-2,6-dione] was tested. Which DC50 ([1]; Table 1, read-out: LTC DC50) did it give?
The DC50 was 6.1 nM.

What about the Dmax ([1]; Table 1, read-out: LTC Dmax) of the same molecule?
Its Dmax is 91.5%.

And the DC50 [2]?
The DC50 was 0.61 nM.

And the “DTC Dmax” value [2]?
Its value is 88.65%.

With `CCO/C=C/c1cc(F)c([C@H]2CCC(=O)NC2=O)c(F)c1` [Example 13, (R,E)-3-(4-(2-ethoxyvinyl)-2,6-difluorophenyl)piperidine-2,6-dione] as the molecule, how does the IC50 (CRBN&DDB1 protein) read?
Its IC50 is 27 nM.

Which IC50 (CRBN&DDB1 protein) does the source give for `CCO/C=C/c1cc(F)c([C@@H]2CCC(=O)NC2=O)c(F)c1` [Example 2, (S,E)-3-(4-(2-ethoxyvinyl)-2,6-difluorophenyl)piperidine-2,6-dione] here?
The IC50 was 406 nM.

How did the DC50 [1, 4] turn out when `CCc1ccc2c(P(C)(C)=O)c(Nc3nc(Nc4cc(CC)c(N5CCC(N6CCN(CCc7cc(F)c([C@@H]8CCC(=O)NC8=O)c(F)c7)CC6)CC5)cc4OC)ncc3Br)ccc2n1` [Example 20, (S)-3-(4-(2-(4-(1-(4-((5-bromo-4-((5-(dimethylphosphoryl)-2-ethylquinolin-6-yl)amino)pyrimidin-2-yl)amino)-2-ethyl-5-methoxyphenyl)piperidin-4-yl)piperazin-1-yl)ethyl)-2,6-difluorophenyl)piperidine-2,6-dione] was run?
The DC50 was 90 nM.

What about the Dmax ([1]; Table 2, read-out: BaF3-LTC Dmax) of the same molecule?
Its Dmax is 69%.

And the DC50 [3]?
The DC50 was > 10000 nM.

What about the “H1975 # 28 DTC Dmax” value [3] of the same molecule?
Its value is 19.09%.

For `CCc1ccc2c(P(C)(C)=O)c(Nc3nc(Nc4cc(CC)c(N5CCC(N6CCN(CCc7cc(F)c([C@H]8CCC(=O)NC8=O)c(F)c7)CC6)CC5)cc4OC)ncc3Br)ccc2n1` [Example 21, (R)-3-(4-(2-(4-(1-(4-((5-bromo-4-((5-(dimethylphosphoryl)-2-ethylquinolin-6-yl)amino)pyrimidin-2-yl)amino)-2-ethyl-5-methoxyphenyl)piperidin-4-yl)piperazin-1-yl)ethyl)-2,6-difluorophenyl)piperidine-2,6-dione], which DC50 [1, 4] is on record?
The DC50 was 6.77 nM.

And the DC50 [3]?
Its DC50 is 0.78 nM.

What about the “H1975 # 28 DTC Dmax” value [3] of the same molecule?
The value was 89.6%.
